Data taken from patent US7538072B2, “Stem/leaf desiccant” (Sumitomo Chemical Company, Limited, priority 2001, dated 2009).

Key:
[1] = test system: potato plants; assay: Field test of desiccant effect on potato plants (foliar spray before harvest); format: in vivo; settings: application amount 10 g/ha; emulsifiable concentrate diluted with water containing 1% (v/v) crop oil concentrate, sprayed at the time of foliage turning yellow; examined 14 day after treatment; average of 3 sections
Text: Seed potatoes were planted on a field and grown. At the time of the foliage turning yellow, 2.5 parts of each of compounds a-5 and a-6, 10 parts of Sorpol 3890 (Toho Chemical Industry Co., Ltd.), and 87.5 parts of SOLVESSO 200 (Exxon Mobile Chemical Company) were well mixed to give an emulsifiable concentrate for each compound, diluted at a prescribed dose with water containing 1% (v/v) crop oil concentrate (COC), and the dilution was uniformly sprayed to the plants. One section of the treated field are 2.1×15.2 m in area, and the potato plants on 14 day after the treatment were examined for the desiccant effect. In the table, the desiccation effect was evaluated with following criteria.
1: The desiccated area of foliage is 0 to 29%
2: The desiccated area of foliage is 30 to 69%
3: The desiccated area of foliage is 70 to 89%
4: The desiccated area of foliage is 90 to 99%
5: The desiccated area of foliage is 100%
The treatment was done in 3 sections, the result was indicated with an average of the 3 sections.

melting point [°C] | SMILES | Desiccation effect [1]
 | COC(=O)COc1ccccc1Oc1cc(-n2c(=O)cc(C(F)(F)F)n(C)c2=O)c(F)cc1Cl [Compound a-5, methyl [2-{2-chloro-4-fluoro-5-[3-methyl-2,6-dioxo-4-(trifluoromethyl)-1,2,3,6-tetrahydropyrimidin-1-yl]phenoxy}phenoxy]acetate] | 5 (The desiccated area of foliage is 100%)
52.2 | COC(=O)COc1ncccc1Oc1cc(-n2c(=O)cc(C(F)(F)F)n(C)c2=O)c(F)cc1Cl [Compound a-6, methyl [3-{2-chloro-4-fluoro-5-[3-methyl-2,6-dioxo-4-(trifluoromethyl)-1,2,3,6-tetrahydropyrimidin-1-yl]phenoxy}-2-pyridyloxy]acetate] | 5 (The desiccated area of foliage is 100%)
